# Read-outs that look alike come from different tables or passages of the source.
# Biological target: T1, HCV NS3 helicase (Hepatitis C virus genotype 1b, UniProt P26663)
# T1 construct: full-length NS3 (1-631), purified at Array BioPharma
# Assay: HCV Helicase Prompt FRET Assay (Example A)
# Type: biochemical
# Conditions: read-out: IC50 Activity
# How it was run: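 Full-length NS3 (1-631), 5 or 6 nM, preincubated 5 min with compound, then unwinds 50 nM FAM/BHQ-1 duplex substrate with 250 nM capture strand and 300 μM ATP in 25 mM MOPS pH 7.0, 1.5 mM MgCl2, 0.005% Triton X-100, 2% DMSO. Fluorescence (485/535 nm) followed ~30 min at room temperature; IC50 from initial rates by 4- or 5-parameter fit.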
# [1] = HCV NS3 helicase, tables do not say whether Example A or Example B assay
# [2] = Table 21, compounds made using Scheme 28
# T1 sequence (P26663 1027-1657): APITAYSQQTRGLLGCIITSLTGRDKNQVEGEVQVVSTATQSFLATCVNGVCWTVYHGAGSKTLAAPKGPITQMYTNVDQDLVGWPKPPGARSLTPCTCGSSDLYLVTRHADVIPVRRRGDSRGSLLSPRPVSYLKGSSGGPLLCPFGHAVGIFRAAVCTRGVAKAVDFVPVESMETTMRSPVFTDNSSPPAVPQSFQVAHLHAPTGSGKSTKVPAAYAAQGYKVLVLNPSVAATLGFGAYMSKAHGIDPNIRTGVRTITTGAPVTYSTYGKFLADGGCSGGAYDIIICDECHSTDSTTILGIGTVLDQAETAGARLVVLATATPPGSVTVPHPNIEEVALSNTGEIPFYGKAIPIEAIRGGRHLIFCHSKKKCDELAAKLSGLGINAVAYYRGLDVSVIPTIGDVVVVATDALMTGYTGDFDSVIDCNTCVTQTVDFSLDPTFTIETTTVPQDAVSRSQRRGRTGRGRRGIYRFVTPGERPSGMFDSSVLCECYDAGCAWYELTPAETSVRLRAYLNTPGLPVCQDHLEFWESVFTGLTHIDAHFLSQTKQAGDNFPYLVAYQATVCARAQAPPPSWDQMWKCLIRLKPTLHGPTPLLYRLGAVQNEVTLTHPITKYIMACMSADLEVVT
IC50 [1] [µM],IC50 [2] [µM],SMILES
< 10,,CCN(c1cccc(Cn2cc(CC(=O)O)c3ccccc32)c1)c1ccccc1Cl [Example 552]
10 to 50,,CCN(c1cccc(Cn2cc(CC(=O)O)c3ccccc32)c1)c1ccccc1C(F)(F)F [Example 553]
< 10,,CC(C)N(c1cccc(Cn2cc(CC(=O)O)c3ccccc32)c1)c1ccccc1Cl [Example 554]
< 10,,CC(C)N(c1cccc(Cn2cc(CC(=O)O)c3ccccc32)c1)c1ccccc1C(F)(F)F [Example 555]
,< 10,CN(c1ccc(Cn2cc(CC(=O)O)c3ccccc32)cc1)c1cccc(F)c1 [Example 557]
,10 to 50,CN(c1ccc(F)cc1)c1ccc(Cn2cc(CC(=O)O)c3ccccc32)cc1 [Example 558]
,< 10,CN(c1ccc(Cn2cc(CC(=O)O)c3ccccc32)cc1)c1ccccc1Cl [Example 559]
,< 10,CN(c1ccc(Cn2cc(CC(=O)O)c3ccccc32)cc1)c1cccc(Cl)c1 [Example 560]
,< 10,CN(c1ccc(Cl)cc1)c1ccc(Cn2cc(CC(=O)O)c3ccccc32)cc1 [Example 561]
,10 to 50,COc1ccccc1N(C)c1ccc(Cn2cc(CC(=O)O)c3ccccc32)cc1 [Example 562]
,< 10,COc1cccc(N(C)c2ccc(Cn3cc(CC(=O)O)c4ccccc43)cc2)c1 [Example 563]
,< 10,COc1ccc(N(C)c2ccc(Cn3cc(CC(=O)O)c4ccccc43)cc2)cc1 [Example 564]
,< 10,CN(c1ccc(Cn2cc(CC(=O)O)c3ccccc32)cc1)c1ccccc1C(F)(F)F [Example 565]
,< 10,CN(c1ccc(Cn2cc(CC(=O)O)c3ccccc32)cc1)c1cccc(C(F)(F)F)c1 [Example 566]
,< 10,CN(c1ccc(Cn2cc(CC(=O)O)c3ccccc32)cc1)c1ccc(C(F)(F)F)cc1 [Example 567]
,< 10,CN(c1ccc(Cn2cc(CC(=O)O)c3ccccc32)cc1)c1cccc(F)c1F [Example 568]
,< 10,CN(c1ccc(Cn2cc(CC(=O)O)c3ccccc32)cc1)c1ccc(F)cc1F [Example 569]

IC50 [1] [µM],IC50 [2] [µM],SMILES
,< 10,CN(c1ccc(Cn2cc(CC(=O)O)c3ccccc32)cc1)c1cc(F)ccc1F [Example 570]
,10 to 50,CN(c1ccc(Cn2cc(CC(=O)O)c3ccccc32)cc1)c1c(F)cccc1F [Example 571]
,< 10,CN(c1ccc(Cn2cc(CC(=O)O)c3ccccc32)cc1)c1cccc(Cl)c1Cl [Example 572]
,< 10,CN(c1cccc(Cn2cc(CC(=O)O)c3ccccc32)c1)c1ccc(Cl)cc1Cl [Example 573]
,< 10,CN(c1ccc(Cn2cc(CC(=O)O)c3ccccc32)cc1)c1cc(Cl)ccc1Cl [Example 574]
,< 10,CN(c1ccc(Cn2cc(CC(=O)O)c3ccccc32)cc1)c1ccc(Cl)c(Cl)c1 [Example 575]
,< 10,CN(c1ccc(Cn2cc(CC(=O)O)c3ccccc32)cc1)c1c(Cl)cccc1Cl [Example 576]
,10 to 50,COc1ccc(N(C)c2ccc(Cn3cc(CC(=O)O)c4ccccc43)cc2)c(OC)c1 [Example 577]
,< 10,COc1ccc(OC)c(N(C)c2ccc(Cn3cc(CC(=O)O)c4ccccc43)cc2)c1 [Example 578]
,10 to 50,COc1ccc(N(C)c2ccc(Cn3cc(CC(=O)O)c4ccccc43)cc2)cc1OC [Example 579]
,< 10,CN(c1ccc(Cn2cc(CC(=O)O)c3ccccc32)cc1)c1ccc(C(F)(F)F)cc1C(F)(F)F [Example 580]
,< 10,CN(c1ccc(Cn2cc(CC(=O)O)c3ccccc32)cc1)c1cc(C(F)(F)F)ccc1C(F)(F)F [Example 581]
,< 10,CN(c1ccc(Cn2cc(CC(=O)O)c3ccccc32)cc1)c1cc(C(F)(F)F)cc(C(F)(F)F)c1 [Example 582]
,10 to 50,CCOC(=O)Cc1cn(Cc2ccc(N(C)c3ccccc3F)cc2)c2ccccc12 [Example 583]
< 10,,O=C(O)Cc1cn(Cc2ccc(Oc3cccc(F)c3F)cc2)c2ccccc12 [Example 584]
< 10,,O=C(O)Cc1cn(Cc2ccc(Oc3ccc(F)cc3F)cc2)c2ccccc12 [Example 585]

# Source: patent US20090047246A1, “NOVEL INHIBITORS OF HEPATITIS C VIRUS REPLICATION” (InterMune, Inc., priority 2007, published 2009)
